Reference: publication PMC11726670, “Impact of Linker Composition on VHL PROTAC Cell Permeability” (Journal of Medicinal Chemistry, 2024)
Values after ≈ are worked out from the molar mass of the structure shown. Like-named read-outs stand apart in the source and are kept apart here.

Key:
in vitro = assay: in vitro
Procedure: Stock solutions of the controls and of 1–9 were prepared in DMSO at a concentration of 10 mM, then they were further diluted with PBS (pH 7.4) to a final concentration of 10 μM. Five μL of a lecithin/dodecane mixture and 300 μL of PBS (pH 7.4) solution were pipetted into each acceptor plate well, followed by addition of 300 μL of the solutions of the controls or 1–9 to each well of the donor plate. The acceptor plate was placed into the donor plate followed by incubation at 25 °C, 60 rpm for 16 h.[31] After incubation, aliquots of 50 μL from each well of the acceptor and donor plates are transferred into a 96-well plate and 200 μL of acetonitrile was added to each well. Samples were centrifuged for 20 min and compound concentrations were determined by LC/MS/MS (LC system: Shimadzu; Triple Quad).

[1] = chromatographic Log D at pH 7.5; format: physicochemical
Source text: The chromatographic lipophilicities of the nine PROTACs were therefore determined to understand to what extent the cell permeability differences may originate from lipophilicity.

[2] = pKa determined by photometry; format: physicochemical
Procedure: Both compounds were therefore treated as being mainly uncharged in the subsequent analyses, and the uncharged form of 7 was used in the NMR studies of its conformational ensemble in chloroform.
The pKa of 7 was determined by photometry as reported previously.[57]

physchem = settings: PBS, pH 6.5, aqueous buffer, kinetic from dmso stock
Source text: Before determining the cell permeability of PROTACs 1–8 we assessed their aqueous solubility.

[3] = PBS at pH 6.5; cited from earlier work
ERK5 = test system: ERK5; design: method as in PMID 33488971; settings: previously reported PROTAC; read-out: IC50 for binding to ERK5; cited from earlier work
VHL = VHL (Homo sapiens, UniProt P40337); assay: cell-based VHL binding assay (NanoBRET, live mode); settings: classified by in cellulo/in vitro ratio
Procedure: IC50 values were calculated using a four-parameter fit, with a commercial software package (Genedata Screener, Switzerland).

[4] = pH 7.5, chromatographic lipophilicity, pH 7.5, read-out: LogD (pH 7.5)
[5] = pH 7.5, chromatographic, supplement, read-out: LogD, pH 7.50

Chain of VHL (P40337 whole entry): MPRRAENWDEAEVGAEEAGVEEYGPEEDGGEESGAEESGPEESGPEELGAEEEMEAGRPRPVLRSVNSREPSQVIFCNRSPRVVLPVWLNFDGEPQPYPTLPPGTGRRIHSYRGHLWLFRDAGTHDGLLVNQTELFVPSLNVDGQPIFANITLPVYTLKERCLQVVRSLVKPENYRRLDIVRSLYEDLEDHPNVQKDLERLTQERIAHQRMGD

SMILES | PAMPA, mean (LogPe, cm/s) (in vitro; 16 h, 10 μM) | PAMPA Log[Pe (cm/s)] (in vitro; 16 h, 10 μM, pH 7.4) | chromatographic logD [1, 4] | chromatographic logD [1, 5] | improvement in PAMPA permeability (in vitro; 16 h, 10 μM) | uncharged fraction ([2]; at pH 7.4, from determined pKa) | partially charged fraction ([2]; at physiological pH) | pKa ([2]; tertiary amine of linker, photometry) | solubility (physchem) | solubility kinetic (physchem) | kinetic solubility [3] | IC50 (ERK5) | cell permeability class (in words) (VHL) | Papp at 16 h, 10 μM (in vitro; PAMPA, pH 7.4) | higher PAMPA permeability (in vitro)
Cc1ncsc1-c1ccc(CNC(=O)[C@@H]2C[C@@H](O)CN2C(=O)[C@@H](NC(=O)CN2CCC(CCCOc3cnc4c(C5CCN(C(=O)c6ccc(OC(F)(F)F)cc6)CC5)ncnc4c3)CC2)C(C)(C)C)cc1 [PROTAC 8, 3-Methyl-N-[(4-{3-[(4-{1-[4-(trifluoromethoxy)benzoyl]piperidin-4-yl}pyrido[3,2-d]pyrimidin-7-yl)oxy]propyl}piperidin-1-yl)acetyl]-L-valyl-(4R)-4-hydroxy-N-[4-(4-methyl-1,3-thiazol-5-yl)benzyl]-L-prolinamide] | -6,9 cm/s | –6.90 ± 0.061 cm/s | 3.6 | 3.64 |  |  |  |  |  |  |  |  |  |  | 
Cc1ncsc1-c1ccc(CNC(=O)[C@@H]2C[C@@H](O)CN2C(=O)[C@@H](NC(=O)CN(C)CCCCCCOc2cnc3c(C4CCN(C(=O)c5ccc(OC(F)(F)F)cc5)CC4)ncnc3c2)C(C)(C)C)cc1 [PROTAC 7, N-Methyl-N-{6-[(4-{1-[4-(trifluoromethoxy)benzoyl]piperidin-4-yl}pyrido[3,2-d]pyrimidin-7-yl)oxy]hexyl}glycyl-3-methyl-L-valyl-(4R)-4-hydroxy-N-[4-(4-methyl-1,3-thiazol-5-yl)benzyl]-L-prolinamide] | -6,67 cm/s | –6.67 ± 0.017 cm/s | 3.7 | 3.74 | 40 fold | 76% | < 25% | 6.9 |  |  |  |  |  |  | 
Cc1ncsc1-c1ccc(CNC(=O)[C@@H]2C[C@@H](O)CN2C(=O)[C@@H](NC(=O)CCCCCCCCOc2cnc3c(C4CCN(C(=O)c5ccc(OC(F)(F)F)cc5)CC4)ncnc3c2)C(C)(C)C)cc1 [PROTAC 1, 3-Methyl-N-{9-[(4-{1-[4-(trifluoromethoxy)benzoyl]piperidin-4-yl}pyrido[3,2-d]pyrimidin-7-yl)oxy]nonanoyl}-L-valyl-(4R)-4-hydroxy-N-[4-(4-methyl-1,3-thiazol-5-yl)benzyl]-L-prolinamide] | -8,29 cm/s | –8.29 ± 0.023 cm/s | 3.8 | 3.81 |  |  |  |  | < 0.1 µM | < 1 µM |  |  |  |  | 
Cc1ncsc1-c1ccc(CNC(=O)[C@@H]2C[C@@H](O)CN2C(=O)[C@@H](NC(=O)COCCOCCNC(=O)COc2cnc3c(C4CCN(C(=O)c5ccc(OC(F)(F)F)cc5)CC4)ncnc3c2)C(C)(C)C)cc1 [PROTAC 9] | -6,3 cm/s | –6.30 ± 0.074 cm/s | 2.7 | 2.68 |  |  |  |  |  |  | 6.8 µM (≈ 7.03 µg/mL) | 1.23 µM | high |  | 
Cc1ncsc1-c1ccc(CNC(=O)[C@@H]2C[C@@H](O)CN2C(=O)[C@@H](NC(=O)COCc2cn(CCOc3cnc4c(C5CCN(C(=O)c6ccc(OC(F)(F)F)cc6)CC5)ncnc4c3)nn2)C(C)(C)C)cc1 [PROTAC 4, 3-Methyl-N-{[(1-{2-[(4-{1-[4-(trifluoromethoxy)benzoyl]piperidin-4-yl}pyrido[3,2-d]pyrimidin-7-yl)oxy]ethyl}-1H-1,2,3-triazol-4-yl)methoxy]acetyl}-L-valyl-(4R)-4-hydroxy-N-[4-(4-methyl-1,3-thiazol-5-yl)benzyl]-L-prolinamide] | <-7,94 cm/s | <−7.94 ± 0.20 cm/s | 2.7 |  |  |  |  |  | 12.1 µM (≈ 12.3 µg/mL) | 10 to 20 µM (≈ 10.1 to 20.3 µg/mL) |  |  |  |  | 
Cc1ncsc1-c1ccc(CNC(=O)[C@@H]2C[C@@H](O)CN2C(=O)[C@@H](NC(=O)CCOCCNC(=O)COc2cnc3c(C4CCN(C(=O)c5ccc(OC(F)(F)F)cc5)CC4)ncnc3c2)C(C)(C)C)cc1 [PROTAC 3, 3-Methyl-N-[3-(2-{2-[(4-{1-[4-(trifluoromethoxy)benzoyl]piperidin-4-yl}pyrido[3,2-d]pyrimidin-7-yl)oxy]acetamido}ethoxy)propanoyl]-L-valyl-(4R)-4-hydroxy-N-[4-(4-methyl-1,3-thiazol-5-yl)benzyl]-L-prolinamide] | -6,21 cm/s | –6.21 ± 0.046 cm/s | 2.7 | 2.66 |  |  |  |  | 17 µM (≈ 17.1 µg/mL) | 10 to 20 µM (≈ 10 to 20.1 µg/mL) |  |  |  |  | 
CN(Cc1cnc2nc(N)nc(N)c2n1)c1ccc(C(=O)N[C@@H](CCC(=O)O)C(=O)O)cc1 [Methotrexate, reference compound] |  |  |  |  |  |  |  |  |  |  |  |  |  | 0.00427 ×10⁻⁶ cm/s | 
Cc1ncsc1-c1ccc(CNC(=O)[C@@H]2C[C@@H](O)CN2C(=O)[C@@H](NC(=O)CCOCCOCCOc2cnc3c(C4CCN(C(=O)c5ccc(OC(F)(F)F)cc5)CC4)ncnc3c2)C(C)(C)C)cc1 [PROTAC 2, 3-Methyl-N-[3-(2-{2-[(4-{1-[4-(trifluoromethoxy)benzoyl]piperidin-4-yl}pyrido[3,2-d]pyrimidin-7-yl)oxy]ethoxy}ethoxy)propanoyl]-L-valyl-(4R)-4-hydroxy-N-[4-(4-methyl-1,3-thiazol-5-yl)benzyl]-L-prolinamide] | -5,42 cm/s | –5.42 ± 0.035 cm/s | 2.9 | 2.89 |  |  |  |  | 0.64 µM (≈ 0.634 µg/mL) | < 1 µM |  |  |  |  | ~3 orders of magnitude
Cc1ncsc1-c1ccc(CNC(=O)[C@@H]2C[C@@H](O)CN2C(=O)[C@@H](NC(=O)Cc2ccc(OCCOc3cnc4c(C5CCN(C(=O)c6ccc(OC(F)(F)F)cc6)CC5)ncnc4c3)cc2)C(C)(C)C)cc1 [PROTAC 5, 3-Methyl-N-[(4-{2-[(4-{1-[4-(trifluoromethoxy)benzoyl]piperidin-4-yl}pyrido[3,2-d]pyrimidin-7-yl)oxy]ethoxy}phenyl)acetyl]-L-valyl-(4R)-4-hydroxy-N-[4-(4-methyl-1,3-thiazol-5-yl)benzyl]-L-prolinamide] | <-7,56 cm/s | <−7.56 ± 0.30 cm/s | 3.2 | 3.25 |  |  |  |  | 0.36 µM (≈ 0.363 µg/mL) | < 1 µM |  |  |  |  | 
Cc1ncsc1-c1ccc(CNC(=O)[C@@H]2C[C@@H](O)CN2C(=O)[C@@H](NC(=O)Cc2ccc(OCCOc3cnc4c(C5CCN(C(=O)c6ccc(OC(F)(F)F)cc6)CC5)ncnc4c3)cn2)C(C)(C)C)cc1 [PROTAC 6, 3-Methyl-N-[(5-{2-[(4-{1-[4-(trifluoromethoxy)benzoyl]piperidin-4-yl}pyrido[3,2-d]pyrimidin-7-yl)oxy]ethoxy}pyridin-2-yl)acetyl]-L-valyl-(4R)-4-hydroxy-N-[4-(4-methyl-1,3-thiazol-5-yl)benzyl]-L-prolinamide] | -7,28 cm/s | –7.28 ± 0.035 cm/s | 3 | 2.97 |  |  |  |  | 0.52 µM (≈ 0.525 µg/mL) | < 1 µM |  |  |  |  | 
